These results are taken from ChEMBL document CHEMBL1127235, “1,1-diphenyl-3-dialkylamino-1-silacyclopentane derivatives: A new class of potent and selective 5-HT2A antagonists” (Bioorg Med Chem Lett, 1994).

The structures appear in SMILES notation. pIC50: −log10 of the molar value.

Assay [1] concerns the target 5-hydroxytryptamine receptor 2A (Rattus norvegicus, UniProt P14842). Briefly: In vitro binding affinity towards serotonin 5-HT2A receptor in rat cortical membranes using [3H]ketanserin as radioligand. It is filed as cell membranes.
The subject of assay [2] is Mus musculus. Briefly: In vivo inhibitory activity against mescaline-induced head twitches of mice after pretreatment for 1 hour upon subcutaneous administration. It is filed as functional. Conditions: sc.
The subject of assay [3] is Mus musculus. Put plainly: In vivo inhibitory activity against mescaline-induced head twitches of mice after pretreatment for 15 hours upon peroral administration. Conditions: po. The assay is classed as functional.
Assay [4] deals with Mus musculus. Put plainly: In vivo inhibitory activity against DOI-induced head twitches of mice after pretreatment for 15 hours upon peroral administration. The assay is classed as functional.
The subject of assay [5] is Rattus norvegicus. Briefly: In vivo inhibitory activity against mescaline-induced head twitches of rat after pretreatment for 1 hour upon subcutaneous administration. It is filed as functional.
The subject of assay [6] is Rattus norvegicus. Put plainly: In vivo inhibitory activity against mescaline-induced head twitches of rat after pretreatment for 16 hours upon peroral administration. The assay is classed as functional.
Assay [7] has as its system Mus musculus. Briefly: In vivo inhibitory activity against DOI-induced head twitches of mice after pretreatment for 1 hour upon subcutaneous administration. The assay is classed as functional.
Assay [8] relates to Rattus norvegicus. Put plainly: In vivo inhibitory activity against mescaline-induced head twitches of rat after pretreatment for 1 hour upon peroral administration. The assay is classed as functional.
Assay [9] has as its target T1, Adrenergic receptor alpha-1 (Homo sapiens, UniProt P35348+P25100+P35368).
T1 sequence (P35348 whole entry): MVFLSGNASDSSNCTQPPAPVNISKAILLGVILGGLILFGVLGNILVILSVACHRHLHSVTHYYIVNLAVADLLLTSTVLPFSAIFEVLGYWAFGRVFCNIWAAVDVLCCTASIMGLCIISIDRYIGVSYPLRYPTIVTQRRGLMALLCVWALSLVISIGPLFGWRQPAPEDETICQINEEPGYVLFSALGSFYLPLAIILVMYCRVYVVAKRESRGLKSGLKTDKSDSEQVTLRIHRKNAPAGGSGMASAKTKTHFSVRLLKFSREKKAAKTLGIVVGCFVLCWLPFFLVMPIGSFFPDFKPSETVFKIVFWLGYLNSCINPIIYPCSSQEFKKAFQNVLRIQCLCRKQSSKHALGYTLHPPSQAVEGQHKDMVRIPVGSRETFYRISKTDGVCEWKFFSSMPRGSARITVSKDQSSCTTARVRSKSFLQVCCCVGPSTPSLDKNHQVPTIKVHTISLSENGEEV
T1 sequence (P25100 whole entry): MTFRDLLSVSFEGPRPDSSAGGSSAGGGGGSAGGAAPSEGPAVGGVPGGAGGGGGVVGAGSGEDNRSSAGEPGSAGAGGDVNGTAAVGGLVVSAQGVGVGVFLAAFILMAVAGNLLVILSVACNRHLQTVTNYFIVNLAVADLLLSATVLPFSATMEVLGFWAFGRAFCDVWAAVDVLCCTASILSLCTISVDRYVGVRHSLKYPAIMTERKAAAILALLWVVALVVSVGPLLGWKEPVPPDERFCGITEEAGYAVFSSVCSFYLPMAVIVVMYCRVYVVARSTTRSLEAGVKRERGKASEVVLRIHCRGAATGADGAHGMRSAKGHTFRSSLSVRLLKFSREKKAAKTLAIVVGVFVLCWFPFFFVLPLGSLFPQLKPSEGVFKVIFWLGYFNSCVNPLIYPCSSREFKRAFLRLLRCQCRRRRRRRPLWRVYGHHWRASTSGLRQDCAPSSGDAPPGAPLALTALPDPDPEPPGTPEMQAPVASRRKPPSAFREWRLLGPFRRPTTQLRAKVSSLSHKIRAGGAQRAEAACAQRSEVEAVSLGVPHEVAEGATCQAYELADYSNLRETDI
T1 sequence (P35368 whole entry): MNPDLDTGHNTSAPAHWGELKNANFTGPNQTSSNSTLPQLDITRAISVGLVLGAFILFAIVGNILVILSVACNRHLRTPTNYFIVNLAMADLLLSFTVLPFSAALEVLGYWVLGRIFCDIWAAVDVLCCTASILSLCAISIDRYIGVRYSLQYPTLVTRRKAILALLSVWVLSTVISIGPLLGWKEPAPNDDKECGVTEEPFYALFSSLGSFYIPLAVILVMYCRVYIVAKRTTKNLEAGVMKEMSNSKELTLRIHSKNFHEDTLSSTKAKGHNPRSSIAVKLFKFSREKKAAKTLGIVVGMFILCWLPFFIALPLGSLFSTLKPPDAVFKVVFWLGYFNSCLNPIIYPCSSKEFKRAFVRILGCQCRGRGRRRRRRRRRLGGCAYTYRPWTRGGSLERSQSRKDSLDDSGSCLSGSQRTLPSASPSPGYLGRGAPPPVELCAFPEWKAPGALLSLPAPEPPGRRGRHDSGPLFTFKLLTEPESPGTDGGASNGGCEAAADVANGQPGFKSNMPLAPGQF
Put plainly: Binding affinity towards Alpha-1 adrenergic receptor. It is filed as protein assay.

A further assay addresses D(2) dopamine receptor (Homo sapiens, UniProt P14416). Briefly: Binding affinity towards dopamine D2 receptor.
The next assay has as its target Histamine H1 receptor (Homo sapiens, UniProt P35367). Put plainly: Binding affinity towards histamine H1 receptor.
Assay [10] deals with T2, Muscarinic acetylcholine receptor M4 (Homo sapiens, UniProt P08173).
T2 sequence (P08173 whole entry): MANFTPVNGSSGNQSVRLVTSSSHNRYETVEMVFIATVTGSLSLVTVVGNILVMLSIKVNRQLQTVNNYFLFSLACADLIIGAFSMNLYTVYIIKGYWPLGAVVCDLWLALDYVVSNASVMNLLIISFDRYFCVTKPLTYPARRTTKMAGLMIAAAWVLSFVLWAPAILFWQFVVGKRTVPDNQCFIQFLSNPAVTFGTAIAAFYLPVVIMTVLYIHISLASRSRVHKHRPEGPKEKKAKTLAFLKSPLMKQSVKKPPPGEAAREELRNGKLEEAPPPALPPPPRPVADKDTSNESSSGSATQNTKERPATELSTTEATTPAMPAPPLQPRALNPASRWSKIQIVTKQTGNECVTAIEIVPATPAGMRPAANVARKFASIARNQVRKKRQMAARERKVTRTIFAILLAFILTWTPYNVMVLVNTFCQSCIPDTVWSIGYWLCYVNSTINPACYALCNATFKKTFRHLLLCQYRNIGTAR
Put plainly: Binding affinity towards muscarinic receptor.

The test system of assay [11] is Rattus norvegicus. Briefly: In vivo inhibitory activity against mescaline-induced head twitches of rat after pretreatment for 6 hours upon peroral administration. The assay is classed as functional.
The mark [12] stands for this setting: Rattus norvegicus, po, read-out: ED50.

5-hydroxytryptamine receptor 2A, sequence (P14842 whole entry): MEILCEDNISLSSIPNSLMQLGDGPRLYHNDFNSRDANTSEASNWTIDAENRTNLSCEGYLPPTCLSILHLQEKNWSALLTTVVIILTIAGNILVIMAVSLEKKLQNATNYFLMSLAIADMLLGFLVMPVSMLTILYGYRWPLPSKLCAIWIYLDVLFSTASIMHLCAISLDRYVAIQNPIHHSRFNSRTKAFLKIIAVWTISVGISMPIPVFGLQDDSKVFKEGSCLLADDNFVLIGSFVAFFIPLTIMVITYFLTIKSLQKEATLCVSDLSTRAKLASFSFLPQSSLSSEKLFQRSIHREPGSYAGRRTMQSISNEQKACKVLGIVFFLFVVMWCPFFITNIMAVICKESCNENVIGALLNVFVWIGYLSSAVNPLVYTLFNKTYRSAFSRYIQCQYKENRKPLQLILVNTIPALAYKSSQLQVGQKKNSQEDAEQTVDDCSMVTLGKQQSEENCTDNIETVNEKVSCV
Histamine H1 receptor, sequence (P35367 whole entry): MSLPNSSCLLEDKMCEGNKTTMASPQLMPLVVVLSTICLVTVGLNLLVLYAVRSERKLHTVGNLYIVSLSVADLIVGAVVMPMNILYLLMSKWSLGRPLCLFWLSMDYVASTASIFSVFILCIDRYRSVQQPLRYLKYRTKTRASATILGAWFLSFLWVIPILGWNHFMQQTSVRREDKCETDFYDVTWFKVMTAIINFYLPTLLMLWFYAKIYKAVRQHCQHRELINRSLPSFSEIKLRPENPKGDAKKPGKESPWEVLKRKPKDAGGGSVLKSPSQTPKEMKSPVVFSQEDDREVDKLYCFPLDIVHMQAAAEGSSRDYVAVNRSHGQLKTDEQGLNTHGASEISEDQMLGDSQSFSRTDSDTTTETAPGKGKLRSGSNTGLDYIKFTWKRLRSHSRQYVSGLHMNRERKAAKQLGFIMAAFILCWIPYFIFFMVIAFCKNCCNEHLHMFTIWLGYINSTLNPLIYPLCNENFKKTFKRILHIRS
D(2) dopamine receptor, sequence (P14416 whole entry): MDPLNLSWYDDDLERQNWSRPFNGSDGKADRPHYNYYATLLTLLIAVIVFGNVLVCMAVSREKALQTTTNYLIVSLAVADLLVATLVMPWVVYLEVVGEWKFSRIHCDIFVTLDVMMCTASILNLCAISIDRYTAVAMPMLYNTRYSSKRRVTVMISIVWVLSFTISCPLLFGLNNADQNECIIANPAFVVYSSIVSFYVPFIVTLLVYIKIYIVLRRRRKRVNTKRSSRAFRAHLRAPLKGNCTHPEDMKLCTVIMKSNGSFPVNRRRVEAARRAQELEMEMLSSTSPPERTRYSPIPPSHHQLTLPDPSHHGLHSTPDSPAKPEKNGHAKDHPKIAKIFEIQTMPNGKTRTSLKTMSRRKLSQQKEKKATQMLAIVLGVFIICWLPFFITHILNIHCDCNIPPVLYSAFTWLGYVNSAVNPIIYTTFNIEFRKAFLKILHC

For the molecule `Fc1ccc([Si]2(c3ccccc3)CCC(N3CCN(c4ccccc4)CC3)C2)cc1` (stereo in doubt), the pIC50 (in general, the IC50 on a negative log10 scale, so that one unit is a factor of ten) in assay [1] was 7.57.

For the molecule `Cc1nc2sccn2c(=O)c1CCN1CCC(=C(c2ccc(F)cc2)c2ccc(F)cc2)CC1` [RITANSERIN], the ED50 (as a rule, the dose that gives a 50% effect, or the effect in half of the subjects) stood at 0.29 mg/kg in the assay on Mus musculus [2]; 0.09 mg/kg with Mus musculus [3]; 0.08 mg/kg in the assay with Mus musculus [4] (Mus musculus, po, read-out: ED50); 0.38 mg/kg in the assay on Rattus norvegicus [5] (Rattus norvegicus, sc, read-out: ED50); 18.1 mg/kg with Rattus norvegicus [6] (setting [12]); 0.05 mg/kg in the assay on Mus musculus [7] (Mus musculus, sc, read-out: ED50).

Molecule `Fc1ccc(N2CCN(C3CC[Si](c4ccc(F)cc4)(c4ccc(F)cc4)C3)CC2)cc1` (stereo unspecified) gave a negative-log IC50 (pIC50) in assay [1] of 7.74.

On to `Fc1ccccc1N1CCN(C2CC[Si](c3ccccc3)(c3ccccc3)C2)CC1` (stereo unspecified), for which the pIC50 in [1] was 7.00.

Take `Fc1ccc(C2=CCN(C3CC[Si](c4ccccc4)(c4ccccc4)C3)CC2)cc1` (stereo unspecified): the negative-log IC50 (pIC50) in assay [1] is 7.85.

In assay [1], `Oc1ccc(N2CCN(C3CC[Si](c4ccccc4)(c4ccccc4)C3)CC2)cc1` (stereo unspecified) had a pIC50 of 7.34.

For `Fc1ccc(N2CCN(C3CC[Si](c4ccccc4)(c4ccccc4)C3)CC2)cc1` (stereo unspecified), the ED50 with Mus musculus [2] came out at 10 mg/kg; with Mus musculus [3], 15 mg/kg. In assay [1], the pIC50 is 9.05.

Consider `Cc1ccc(N2CCN(C3CC[Si](c4ccccc4)(c4ccccc4)C3)CC2)cc1` (stereo unspecified), for which, in [1], the negative-log IC50 (pIC50) was 8.00.

With `Fc1ccc([Si]2(c3ccc(F)cc3)CCC(N3CCN(c4ccccc4)CC3)C2)cc1` (single isomer, unassigned; (-)), the ED50 is 10.5 mg/kg with Mus musculus [4], 10.25 mg/kg with Rattus norvegicus [8], 10.25 mg/kg in the assay with Rattus norvegicus [5] and above 5 mg/kg in the assay on Mus musculus [7]. This molecule had a pIC50 in assay [1] of 7.60.

With `Clc1ccc(N2CCN(C3CC[Si](c4ccccc4)(c4ccccc4)C3)CC2)cc1` (stereo unspecified), the pIC50 in assay [1] was 7.60.

Take `c1ccc(N2CCN(C3CC[Si](c4ccccc4)(c4ccccc4)C3)CC2)cc1` (stereo unspecified): the ED50 in the assay with Mus musculus [2] stood at 68 mg/kg; in the assay with Mus musculus [3] it was 45 mg/kg; in the assay with Rattus norvegicus [8] (setting [12]), 84 mg/kg. Besides, the pIC50 in [1] is 9.00.

Turning to `Cc1cccc(N2CCN(C3CC[Si](c4ccccc4)(c4ccccc4)C3)CC2)c1` (stereo unspecified), in assay [1], the pIC50 was 7.48.

Regarding `c1ccc([Si]2(c3ccccc3)CCC(N3CCN(c4ncccn4)CC3)C2)cc1` (stereo unspecified), the pIC50 in [1] was 7.10.

Turning to `Fc1ccc([Si]2(c3ccc(F)cc3)CCC(N3CCN(c4ccccc4)CC3)C2)cc1` (single isomer, unassigned; (+)), the IC50 (usually the point on the concentration scale where inhibition reaches its midpoint) in assay [9] was found to be 100 nM. Moreover, the pIC50 at D(2) dopamine receptor was 7.00; on Histamine H1 receptor it was below 6.00; in assay [10] it was below 6.00; in [1], 8.52. Also, the ED50 with Mus musculus [4] is 0.62 mg/kg; with Rattus norvegicus [8] it was 2.03 mg/kg; in the assay on Rattus norvegicus [5], 1.56 mg/kg; in the assay with Rattus norvegicus [6] (setting [12]), below 2.5 mg/kg; in the assay with Rattus norvegicus [11] (setting [12]), below 0.63 mg/kg; in the assay with Mus musculus [7], 0.59 mg/kg.

On to `Fc1ccc([Si]2(c3ccc(F)cc3)CCC(N3CCN(c4ccccc4)CC3)C2)cc1` (racemic), for which the IC50 in assay [9] is 86 nM. In addition, the pIC50 on D(2) dopamine receptor is 6.85; on Histamine H1 receptor, below 6.00; in [10], below 6.00; in assay [1], 8.70. Besides, the ED50 in the assay on Mus musculus [2] was 1.38 mg/kg; in the assay on Mus musculus [3] it was 0.44 mg/kg; in the assay on Mus musculus [4], 0.59 mg/kg; in the assay with Rattus norvegicus [8], 1.93 mg/kg; with Rattus norvegicus [5] it was 10 mg/kg; in the assay on Rattus norvegicus [6] it was 1.25 mg/kg. Further, the ED50 in the assay on Rattus norvegicus [11] worked out at 0.48 mg/kg; in the assay with Mus musculus [7], 0.73 mg/kg.

Turning to `Fc1ccc([Si]2(c3ccccc3)CCC(N3CCN(c4ccccc4)CC3)C2)cc1` (single isomer, unassigned), the pIC50 in assay [1] was 7.70.

Turning to `c1ccc(C2CCN(C3CC[Si](c4ccccc4)(c4ccccc4)C3)CC2)cc1` (stereo unspecified), the pIC50 in assay [1] is 7.28.

`Fc1ccc([Si]2(c3ccc(F)cc3)CCC(N3CCN(c4ccccc4)CC3)C2)cc1` (stereo in doubt) showed a pIC50 in assay [1] of 7.80.

With `c1ccc([Si]2(c3ccccc3)CCC(N3CCN(c4ccccn4)CC3)C2)cc1` (stereo unspecified), in assay [1], the pIC50 is 7.54.

In assay [1], `Fc1cccc(N2CCN(C3CC[Si](c4ccccc4)(c4ccccc4)C3)CC2)c1` (stereo unspecified) had a pIC50 of 8.47.
